According to patent publication US6410547B1, “Phenylpyridine derivatives useful as phosphodiesterase inhibitors” (Novartis AG, priority 1996, dated 2002):
Structures can show the parent of a compound that is named as a salt.

Row | Structure (SMILES) | melting point
1 | CCOC(=O)c1ccc(-c2ccc(OC)c(-c3cccc([N+](=O)[O-])c3)c2)cc1 [Example 13, 4′-Methoxy-3′-(3-nitrophenyl)-[1,1′-biphenyl]-4-carboxylic acid, ethyl ester] | 106 to 108 °C
2 | CCOC(=O)c1cccc(-c2ccc(OC)c(-c3cccc([N+](=O)[O-])c3)c2)c1 [Example 14, 4′-Methoxy-3′-(3-nitrophenyl)-[1,1′-biphenyl]-3-carboxylic acid, ethyl ester] | 87 to 89 °C
3 | CCOC(=O)c1ccc(-c2ccc(OC)c(-c3cccc([N+](=O)[O-])c3)c2)cc1C [Example 15, 4′-Methoxy-3-methyl-3′-(3-nitrophenyl)-[1,1′-biphenyl]-4-carboxylic acid, ethyl ester] | 88 to 90 °C
4 | CCOC(=O)c1ccc(-c2ccc(OC)c(-c3ccc4nonc4c3)c2)cc1 [Example 16, 3′-(5-Benzofurazanyl)-4′-methoxy-[1,1′-biphenyl]-4-carboxylic acid, ethyl ester] | 166 to 168 °C
5 | COc1ccc(-c2ccc(C(=O)OCC(C)(C)C)cc2)cc1-c1ccc2nonc2c1 [Example 17, 3′-(5-Benzofurazanyl)-4′-methoxy-[1,1′-biphenyl]-4-carboxylic acid, 2,2-dimethylpropyl ester] | 131 to 136 °C
6 | COc1ccc(-c2cccc(C(=O)O)c2)cc1-c1cccc([N+](=O)[O-])c1 [Example 19, 4′-Methoxy-3′-(3-nitrophenyl)-[1,1′-biphenyl]-3-carboxylic acid] | 223 to 228 °C
7 | COc1ccc(-c2ccc(C(=O)O)c(C)c2)cc1-c1cccc([N+](=O)[O-])c1 [Example 20, 4′-Methoxy-3-methyl-3′-(3-nitrophenyl)-[1,1′-biphenyl]-4-carboxylic acid] | 278 to 281 °C
8 | COc1ccc(-c2ccc(C(=O)O)cc2)cc1-c1ccc2nonc2c1 [Example 21, 3′-(5-Benzofurazanyl)-4′-methoxy-[1,1′-biphenyl]-4-carboxylic acid] | > 300 °C
9 | COc1ccc(-c2cccc(C(N)=O)c2)cc1-c1cccc([N+](=O)[O-])c1 [Example 25, 4′-Methoxy-3′-(3-nitrophenyl)-[1,1′-biphenyl]-3-carboxamide] | 118 to 120 °C
10 | COc1ccc(-c2ccc(C(N)=O)c(C)c2)cc1-c1cccc([N+](=O)[O-])c1 [Example 26, 4′-Methoxy-3-methyl-3′-(3-nitrophenyl)-[1,1′-biphenyl]-4-carboxamide] | 179 to 184 °C
11 | CNC(=O)c1ccc(-c2ccc(OC)c(-c3cccc([N+](=O)[O-])c3)c2)cc1 [Example 27, N-Methyl-4′-methoxy-3′-(3-nitrophenyl)-[1,1′-biphenyl]-4-carboxamide] | 171 to 172 °C
12 | COc1ccc(-c2ccc3nccn3c2)cc1-c1ccc2nonc2c1 [Example 28, 6-[4-Methoxy-3-(5-benzofurazanyl)phenyl]imidazo[1,2-a]pyridine] | 190 to 196 °C

Results, then the compound that gave them:

Row | melting point | Structure (SMILES)
13 | 156 to 210 °C | COc1ccc(-c2ccncc2)cc1-c1cccc(Cl)c1 (as salt: hydrochloride) [Example 7, 4-[2-(Methoxy)-3′-(chloro)biphenyl-5-yl]pyridine]
14 | 184 to 204 °C | COc1ccc(-c2ccncc2)cc1-c1cccc(Oc2ccccc2)c1 (as salt: hydrochloride) [Example 9, 4-[2-(Methoxy)-3′-(phenoxy)biphenyl-5-yl]pyridine]
15 | 173 to 218 °C | COc1ccc(-c2ccncc2)cc1-c1ccc(Oc2ccccc2)cc1 (as salt: hydrochloride) [Example 10, 4-[2-(Methoxy)4′-(phenoxy)biphenyl-5-yl]pyridine]
16 | 115 °C | COc1ccc(-c2ccncc2)cc1-c1ccc(F)c(Cl)c1 (as salt: hydrochloride) [Example 11, 4-[2-(Methoxy)-3′-(chloro)4′-(fluoro)biphenyl-5-yl]pyridine]
17 | 187 to 192 °C | COc1ccc(-c2ccncc2)cc1-c1ccc2nonc2c1 [Example 5, 4-[4-Methoxy-3-(5-benzofurazanyl)phenyl]pyridine]
18 | 250 to 252 °C | COc1ccc(-c2ccc(C(=O)O)cc2)cc1-c1cccc(Cl)c1 [Example 22, 4′-Methoxy-3′-(3-chlorophenyl)-[1,1′-biphenyl]-4-carboxylic acid]
19 | 280 to 285 °C | COc1ccc(-c2ccc(C(=O)O)cc2)cc1-c1cccc(C#N)c1 [Example 23, 4′-Methoxy-3′-(3-cyanophenyl)-[1,1′-biphenyl]-4-carboxylic acid]
20 | 201 to 205 °C | COc1ccc(-c2ccc(C(N)=O)cc2)cc1-c1cccc([N+](=O)[O-])c1 [Example 24, 4′-Methoxy-3′-(3-nitrophenyl)-[1,1′-biphenyl]-4-carboxamide]
